Reference: patent publication US20090075950A1, “Dosage Forms Containing A PPI, NSAID And A Buffer” (Takeda Pharmaceuticals North America, Inc., priority 2002, published 2009)

What was measured:
[1] = PPI/NSAID drug substance compatibility: storage of lansoprazole/NSAID mixtures with and without buffer; type: physicochemical
Method: Various NSAIDs were combined with lansoprazole with and without a buffer to determine the compatibility of the components. The various mixtures were placed at room temperature and 40° C. with 75% relative humidity. The samples were tested initially and after two weeks at the storage conditions above. The results are reported in Table 1 below as a percent of the theoretical amount of a given component.

[2] = Potency by HPLC and compatibility on storage of granulations and drug substances; type: physicochemical; details: for Potency 2 Weeks Extreme Conditions, NSAID: 2 weeks at 40° C. with 75% to 85% relative humidity; for Potency 4 Weeks Extreme Conditions, NSAID: 4 weeks at 40° C. with 75% to 85% relative humidity; for Potency 19 Days RT, NSAID: 19 days at room temperature; for Potency 33 Days RT, NSAID: 33 days at room temperature
Method: In this example, granulations of a PPI and various NSAIDs were prepared to determine the compatibility of these substances with each other in a granulated form.
The potency (mg/g) of each drug substance in each granulation was determined by HPLC.
Granulations A, C, and D, as well as naproxen and piroxicam drag substances were weighed and separately placed in scintillation vials and stored at room temperature (RT) and at 40° C. with 75% to 85% relative humidity (“Extreme Conditions”). Granulations A, C, and D, as well as the naproxen and piroxicam, were tested for potency of the lansoprazole and NSAID after 19 and 33 days at the room temperature conditions and after two and four weeks under the Extreme Conditions.

Row | % of Theory, 40° C. 75% humidity, lanso ([1]; lansoprazole recovered after two weeks at 40° C. with 75% relative humidity) | % of Theory, Room Temp., lanso ([1]; lansoprazole recovered after two weeks at room temperature) | % of Theory, Initial, lanso ([1]; lansoprazole recovered, initial) | Potency 2 Weeks Extreme Conditions, NSAID [2] | Potency 4 Weeks Extreme Conditions, NSAID [2] | Potency 19 Days RT, NSAID [2] | Potency 33 Days RT, NSAID [2] | Compound
1 | 99.1/NA % | 99.1/NA % | 100.8/NA % |  |  |  |  | Cc1c(OCC(F)(F)F)ccnc1C[S+]([O-])c1nc2ccccc2[nH]1 (centres unmarked) [Lansoprazole, lansoprazole]
2 |  |  |  | NA/996.7 mg/g | NA/1000.9 mg/g | NA/997.2 mg/g | NA/998.2 mg/g | COc1ccc2cc([C@H](C)C(=O)O)ccc2c1 [Naproxen, naproxen]
3 |  |  |  | NA/942.2 mg/g | NA/1005.5 mg/g | NA/1027.1 mg/g | NA/998.5 mg/g | CN1C(C(=O)Nc2ccccn2)=C(O)c2ccccc2S1(=O)=O [Piroxicam, piroxicam]
